Source: article PMC4051119, “Bacterial actin MreB forms antiparallel double filaments” (eLife, 2014)
pKd: −log10 of the molar value. “And” between values parts separate entries of the source, which are not always exact repeats. Equal entries are not always repeated. Where two headings read alike, the source gives them in different places.

Key:
cell morphology = system: cell morphology; set-up: method as in earlier work; conditions: ref Iwai et al., 2002; Gitai et al., 2005; Bean et al., 2009; Takacs et al., 2010; cited from earlier work
ΔCcMreBdh = biological target: T1, ΔCcMreBdh (Caulobacter vibrioides, UniProt A0A0H3C7V4, F102S/V103G); test: Isothermal titration calorimetry of nucleotides and MP265 binding to MreB; set-up: species or system Caulobacter crescentus; conditions: ITC
T1 construct: added initiator Met (M before I9) (N); made in house; host or cells: E. coli C41(DE3) (printed for the sister construct ΔCcMreBh)
Procedure: […] Samples were stored by the instrument in 96-well microtitre plates at 5°C prior to loading and performing the ITC titrations. […] Heat from the pre-injection was not used during fitting. Data were analysed manually in the Origin software package provided by the manufacturer and fit to a single set of binding sites model. […] The small endothermic heats of each injection in these experiments were fitted to a simple linear function that was subsequently subtracted from the equivalent integrated heats of the experiment when protein was present.

[1] = 25°C, ligand titrated into ΔCcMreBdh alone
[2] = 25°C, ligand titrated into ΔCcMreBdh alone, read-out: Kd

T1 sequence (A0A0H3C7V4 9-347 F102S/V103G): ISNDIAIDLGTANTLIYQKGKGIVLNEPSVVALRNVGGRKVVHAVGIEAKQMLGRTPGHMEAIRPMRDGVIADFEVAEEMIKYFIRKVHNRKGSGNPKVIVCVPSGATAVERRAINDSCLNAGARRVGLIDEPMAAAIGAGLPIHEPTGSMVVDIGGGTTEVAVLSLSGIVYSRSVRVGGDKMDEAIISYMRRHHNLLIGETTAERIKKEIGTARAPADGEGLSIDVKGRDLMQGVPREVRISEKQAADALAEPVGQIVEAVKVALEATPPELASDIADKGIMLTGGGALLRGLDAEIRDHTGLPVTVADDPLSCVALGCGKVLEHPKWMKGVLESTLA

| SMILES | effect on cell morphology (cell morphology) | ΔH (ΔCcMreBdh; [1]) | pKd (ΔCcMreBdh; [2]) | also measured |
| --- | --- | --- | --- | --- |
| N=C(N)SCc1ccc(Cl)c(Cl)c1 [A22, S-(3,4-dichlorobenzyl) isothiourea] | perturb cell morphology reminiscent of an MreB knock-out | – | – | – |
| Nc1ncnc2c1ncn2[C@@H]1O[C@H](COP(=O)(O)OP(=O)(O)O)[C@@H](O)[C@H]1O [ADP] | – | -5.3 kcal/mol | ~5.40 and 5.40 | – |
| Nc1ncnc2c1ncn2[C@@H]1O[C@H](COP(=O)(O)OP(=O)(O)NP(=O)(O)O)[C@@H](O)[C@H]1O [AMPPNP] | – | -4.4 kcal/mol | ~4.19 and 4.19 | – |
| Nc1ncnc2c1ncn2[C@@H]1O[C@H](COP(=O)(O)OP(=O)(O)OP(=O)(O)O)[C@@H](O)[C@H]1O [ATP] | – | -6.0 kcal/mol | ~6.00 and 6.00 | – |
| Nc1ncnc2c1ncn2[C@@H]1O[C@H](CO[P@](=O)(O)O[P@](=O)(O)O[P@@](=O)(O)S)[C@@H](O)[C@H]1O [ATPγS] | – | -7.7 kcal/mol | – | pKd (ΔCcMreBdh; Kd, 25°C, ligand titrated into ΔCcMreBdh alone): ~5.34 and 5.35 |
| N=C(N)SCc1ccc(Cl)cc1 [MP265] | perturb cell morphology reminiscent of an MreB knock-out | – | ~4.57 and 4.59 and 4.57 | pKd (ΔCcMreBdh; 15°C, in the presence of 0.5 mM ADP, data not shown, read-out: affinity (Kd)): 6.22; pKd (ΔCcMreBdh; 15°C, in the presence of 0.5 mM AMPPNP, data not shown, read-out: affinity (Kd)): 6.15; pKd (ΔCcMreBdh; 15°C, ΔCcMreBdh alone, data not shown, read-out: affinity (Kd)): 4.72; ΔH (ΔCcMreBdh; 25°C, in the presence of 0.5 mM ADP): -12 kcal/mol; pKd (ΔCcMreBdh; 25°C, in the presence of 0.5 mM ADP, read-out: Kd): 5.89; ΔH (ΔCcMreBdh; 25°C, in the presence of 0.5 mM AMPPNP): -11 kcal/mol; pKd (ΔCcMreBdh; 25°C, in the presence of 0.5 mM AMPPNP, read-out: Kd): 5.77; increase of binding affinity in the presence of di- and trinucleotide phosphates (ΔCcMreBdh; with nucleotide versus ΔCcMreBdh alone): 20–30 fold |
